Measurements taken from paper PMC12143591, “Unlocking the serine mischarging paradox and inhibiting lactyltransferase activity of AlaRS by a single-point mutation” (Nucleic Acids Research, 2025).
Like-named read-outs stand apart in the source and are kept apart here.

Experiments:
Assay in all cases: PPi release assay (pyrophosphatase, BIOMOL Green, […] nm)
Assay type in all cases: biochemical
[1] = biological target: T1, AlaRS (AlaRS^WT) (Methylomonas sp. DH-1, UniProt Z9JP01Z3Z1, L219M, form not given); conditions: 8 uM tRNA-Ala, 200 uM ATP, 40 mM MgCl2, 1 mM DTT, pH 7.5, 37 °C
T1 construct: full-length, pET-28b(+) (BamHI/NotI), Ni-NTA purified from E. coli Rosetta-gami2(DE3)pLysS; tag removal not mentioned

[2] = biological target: T2, AlaRS (AlaRS^WT) (Methylomonas sp. DH-1, UniProt Z9JP01Z3Z1, L219F, form not given); conditions: 8 uM tRNA-Ala, 200 uM ATP, 40 mM MgCl2, 1 mM DTT, pH 7.5, 37 °C; read-out: Alanine / K m
T2 construct: full-length, pET-28b(+) (BamHI/NotI), Ni-NTA purified from E. coli Rosetta-gami2(DE3)pLysS; tag removal not mentioned

[3] = biological target: T3, AlaRS (AlaRS^WT) (Methylomonas sp. DH-1, UniProt Z9JP01Z3Z1, L219A, form not given); conditions: 8 uM tRNA-Ala, 200 uM ATP, 40 mM MgCl2, 1 mM DTT, pH 7.5, 37 °C; read-out: Alanine / K m
T3 construct: full-length, pET-28b(+) (BamHI/NotI), Ni-NTA purified from E. coli Rosetta-gami2(DE3)pLysS; tag removal not mentioned

[4] = biological target: T4, AlaRS (AlaRS^WT) (Methylomonas sp. DH-1, UniProt Z9JP01Z3Z1, V207A/L222M, form not given); conditions: 8 uM tRNA-Ala, 200 uM ATP, 40 mM MgCl2, 1 mM DTT, pH 7.5, 37 °C; read-out: Alanine / K m
T4 construct: full-length, pET-28b(+) (BamHI/NotI), Ni-NTA purified from E. coli Rosetta-gami2(DE3)pLysS; tag removal not mentioned

[5] = biological target: T5, AlaRS429 (Methylomonas sp. DH-1, UniProt Z9JP01Z3Z1, L219M, form not given); conditions: 8 uM tRNA-Ala, 200 uM ATP, 40 mM MgCl2, 1 mM DTT, pH 7.5, 37 °C; read-out: Alanine / K m
T5 construct: residues 1-429 (aminoacylation domain, no editing domain), non-cleavable C-terminal His6 tag, synthetic gene in pET28b(+), E. coli BL21(DE3)

Km [2]	Km ([1]; read-out: Alanine / K m)	Km [3]	Km [4]	Km [5]	SMILES	Km ([1]; read-out: Glycine / K m)
					NCC(=O)O [Gly]	7910 ± 3280 µM
7 ± 3 µM	9 ± 1 µM	9 ± 6 µM	145 ± 39 µM	3 ± 1 µM	C[C@H](N)C(=O)O [Ala]	
